Assays:
Assay type in all cases: in vivo
[1] = test system: Triticum aestivum (TRZAS); test: Pre-emergence effects on crop plants, section D (Table D2); details: visual grading after ca. 3 weeks
Outline: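 Formulated compound (wettable powder or emulsifiable concentrate) was applied pre-emergence to the soil surface at 320 g/ha or lower. Greenhouse-grown plants were rated visually for percent damage after ca. 3 weeks.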

Oryza sativa (ORYZA) [2] = test: Pre-emergence effects on crop plants, section D (Table D3); details: visual grading after ca. 3 weeks
Excerpt: (§1) Seeds of mono- and dicotyledonous weed plants and crop plants were sown, in plastic or organic planting pots, in sandy loam and covered with soil. The compounds according to the invention, formulated in the form of wettable powders (WP) or as emulsifiable concentrates (EC), were applied to the surface of the covering soil as aqueous suspension or emulsion, with the addition of 0.5% of an additive, at an application rate of 600 l of water/ha (converted).
(§2) Following treatment, the pots were placed in a greenhouse and kept under optimum growth conditions for the test plants. The visual grading of the damage to the test plants was carried out after ca. 3 weeks in comparison to untreated controls (herbicidal effect in percent (%): 100% effect=plants have died off, 0% effect=as control plants).
(§3) Tables D1 to D5 below show the effects of various compounds of the general formula (I) according to Table 1 on various crop plants and an application rate corresponding to 320 g/ha or below obtained by the experimental procedure mentioned above in Biological Examples, Section C.

Zea mays (ZEAMX) [3] = test: Post-emergence effects on crop plants, section F (Table F1); details: application rate 320 g/ha
Outline: (§4)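 Crop seeds were sown in sandy loam in pots and greenhouse-grown; at the single-leaf stage, 2 to 3 weeks after sowing, plants were sprayed with WP or EC formulations plus 0.5% additive at 600 l water/ha, 320 g/ha or below. Damage was scored visually about 3 weeks later versus untreated controls (0–100%).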

Glycine max (GLXMA) [4] = test: Post-emergence effects on crop plants, section F (Table F4)
Outline: as §4

Veronica persica (VERPE) = test: Herbicidal post-emergence action, section E (Table E9); details: Veronica persica, 504 h, application rate 320 g/ha, visual assessment ca. 3 weeks after spraying, read-out: post-emergence activity against VERPE in %
Excerpt: (§5) Seeds of mono- and dicotyledonous weed plants and crop plants were sown, in plastic or organic planting pots, in sandy loam, covered with soil and grown in a greenhouse under controlled growth conditions. 2 to 3 weeks after sowing, the test plants were sprayed in the single-leaf stage. The compounds according to the invention, formulated in form of wettable powders (WP) or as emulsifiable concentrates (EC), were sprayed onto the green plant parts as aqueous suspension or emulsion, with the addition of 0.5% of an additive, at an application rate of 600 l of water/ha (converted). The test plants were placed in the greenhouse for ca. 3 weeks under optimum growth conditions, and then the effect of the preparations was assessed visually in comparison with untreated controls (herbicidal effect in percent (%): 100% effect=plants have died off, 0% effect=as control plants).

Brassica napus (BRSNW) [5] = test: Post-emergence effects on crop plants, section F (Table F5); details: application rate 80 g/ha
Excerpt: as §5, with “plants). Tables F1 to F4 below show the effects of selected compounds of the general formula (I) according to Table 1 on various crop plants and an application rate corresponding to 320 g/ha or below obtained by the experimental procedure mentioned above.” for “plants).”

[6] = test system: Polygonum convolvulus (POLCO); test: Herbicidal post-emergence action, section E (Table E7); details: Fallopia convolvulus, 504 h, application rate 320 g/ha, visual assessment ca. 3 weeks after spraying, read-out: post-emergence activity against POLCO in %
Excerpt: as §5

Zea mays (ZEAMX) [7] = test: Pre-emergence effects on crop plants, section D (Table D1); details: visual grading after ca. 3 weeks
Excerpt: as §1, §2, §3

Oryza sativa (ORYZA) [8] = test: Post-emergence effects on crop plants, section F (Table F3)
Excerpt: as §5, with “plants). Tables F1 to F4 below show the effects of selected compounds of the general formula (I) according to Table 1 on various crop plants and an application rate corresponding to 320 g/ha or below obtained by the experimental procedure mentioned above.” for “plants).”

Setaria viridis (SETVI) [9] = test: Herbicidal pre-emergence action, section C (Table C8); details: application rate 320 g/ha, visual grading after ca. 3 weeks
Excerpt: (§6) Seeds of mono- and dicotyledonous weed plants and crop plants were sown, in plastic or organic planting pots, in sandy loam and covered with soil. The compounds according to the invention, formulated in the form of wettable powders (WP) or as emulsifiable concentrates (EC), were applied to the surface of the covering soil as aqueous suspension or emulsion, with the addition of 0.5% of an additive, at an application rate of 600 l of water/ha (converted). Following treatment, the pots were placed in a greenhouse and kept under optimum growth conditions for the test plants. The visual grading of the damage to the test plants was carried out after ca. 3 weeks in comparison to untreated controls (herbicidal effect in percent (%): 100% effect=plants have died off, 0% effect=as control plants).

[10] = test system: Alopecurus myosuroides (ALOMY); test: Herbicidal pre-emergence action, section C (Table C2); details: Alopecurus myosuroides, pre-emergence, 504 h; application rate 320 g/ha; visual grading after ca. 3 weeks vs untreated controls; read-out: pre-emergence activity against ALOMY in %
Excerpt: as §6

Lolium rigidum (LOLRI) [11] = test: Herbicidal pre-emergence action, section C (Table C5); details: Lolium rigidum, pre-emergence, 504 h; application rate 320 g/ha; visual grading after ca. 3 weeks; read-out: pre-emergence activity against LOLRI in %
Excerpt: as §6

[12] = test system: Polygonum convolvulus (POLCO); test: Herbicidal pre-emergence action, section C (Table C7); details: Fallopia convolvulus, pre-emergence, 504 h; application rate 320 g/ha; visual grading after ca. 3 weeks; read-out: pre-emergence activity against POLCO in %
Excerpt: as §6

[13] = test system: Triticum aestivum (TRZAS); test: Post-emergence effects on crop plants, section F (Table F2); details: application rate 320 g/ha
Outline: as §4

[14] = test system: Echinochloa crus-galli (ECHCG); test: Herbicidal pre-emergence action, section C (Table C3); details: application rate 320 g/ha, visual grading after ca. 3 weeks vs untreated controls
Excerpt: as §6

[15] = test system: Alopecurus myosuroides (ALOMY); test: Herbicidal post-emergence action, section E (Table E2); details: Alopecurus myosuroides, post-emergence, 504 h; application rate 320 g/ha; assessed visually after ca. 3 weeks; read-out: post-emergence activity against ALOMY in %
Excerpt: as §5

Brassica napus (BRSNW) [16] = test: Pre-emergence effects on crop plants, section D (Table D5); details: application rate 80 g/ha; visual grading after ca. 3 weeks
Excerpt: as §1, §2, §3

Glycine max (GLXMA) [17] = test: Pre-emergence effects on crop plants, section D (Table D4); details: application rate 320 g/ha; visual grading after ca. 3 weeks
Excerpt: as §1, §2, §3

Stellaria media (STEME) = test: Herbicidal pre-emergence action, section A (Table A9); details: application rate 1280 g/ha
Outline: (§7)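 Test plants, grown from seed sown in sandy loam with two species per pot, were treated pre-emergence by spraying the covering soil with WP or EC formulations at 600 l/ha water plus 0.5% additive. Visual grading of percent damage followed at ca. 3 weeks.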

Kochia scoparia (KCHSC) [18] = test: Herbicidal pre-emergence action, section A (Table A4); details: application rate 1280 g/ha; visual grading after ca. 3 weeks vs untreated controls
Outline: as §7

[19] = test system: Digitaria sanguinalis (DIGSA); test: Herbicidal pre-emergence action, section A (Table A12); details: application rate 1280 g/ha
Outline: as §7

Lolium rigidum (LOLRI) [20] = test: Herbicidal pre-emergence action, section A (Table A5); details: application rate 1280 g/ha; visual grading after ca. 3 weeks vs untreated controls
Outline: as §7

Kochia scoparia (KCHSC) [21] = test: Herbicidal post-emergence action, section B (Table B4); details: application rate 1280 g/ha; visual rating about 3 weeks after treatment vs untreated controls
Outline: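 Greenhouse post-emergence spray on one-leaf-stage plants (sown in sandy loam, 2 to 3 weeks old). WP/EC formulations in water + 0.5% additive, 600 liters per hectare. Read-out: visual % activity vs untreated, ~3 weeks after treatment; 100% = dead, 0% = as control.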

[22] = test system: Amaranthus retroflexus (AMARE); test: Herbicidal pre-emergence action, section C (Table C11); details: application rate 80 g/ha; visual grading after ca. 3 weeks
Excerpt: as §6

[23] = test system: Amaranthus retroflexus (AMARE); test: Herbicidal pre-emergence action, section A (Table A11); details: application rate 1280 g/ha
Outline: as §7

Poa annua (POAAN) = test: Herbicidal pre-emergence action, section A (Table A7); details: application rate 320 g/ha; visual grading after ca. 3 weeks vs untreated controls
Outline: as §7

Setaria viridis (SETVI) [24] = test: Herbicidal pre-emergence action, section A (Table A8); details: application rate 320 g/ha
Outline: as §7

[25] = test system: Digitaria sanguinalis (DIGSA); test: Herbicidal pre-emergence action, section C (Table C12); details: application rate 320 g/ha; visual grading after ca. 3 weeks
Excerpt: as §6

Compound: Cc1cc2c(nc1-c1ccccc1F)N(C(=O)C1CC1)CS2 [Example I-018, cyclopropyl[5-(2-fluorophenyl)-6-methyl[1,3]thiazolo[4,5-b]pyridin-3(2H)-yl]methanone]
- pre-emergence activity against TRZAS in % (crop plant damage) ([1]; application rate 80 g/ha): 10%
- pre-emergence activity against ORYZA in % (crop plant damage) (Oryza sativa (ORYZA) [2]; application rate 80 g/ha): 10%
- percent crop plant damage (phytotoxicity) on Zea mays, post-emergence at 320 g/ha (Zea mays (ZEAMX) [3]; Zea mays, 504 h, read-out: post-emergence activity against ZEAMX in %): 20%
- percent crop plant damage at 320 g/ha (Glycine max (GLXMA) [4]; Glycine max, 504 h, application rate 320 g/ha, read-out: post-emergence activity against GLXMA in %): 0%
- pest or weed control at 320 g/ha (Veronica persica (VERPE)): 90%
- crop plant damage (phytotoxicity) in % at 80 g/ha (Brassica napus (BRSNW) [5]; Brassica napus, 504 h, read-out: post-emergence activity against BRSNW in %): 10%
- pest or weed control at 320 g/ha [6]: 80%
- pre-emergence activity against ZEAMX in % (crop plant damage) (Zea mays (ZEAMX) [7]; application rate 80 g/ha): 20%
- percent crop plant damage at 80 g/ha (Oryza sativa (ORYZA) [8]; Oryza sativa, 504 h, application rate 80 g/ha, read-out: post-emergence activity against ORYZA in %): 0%
- pest or weed control at 320 g/ha (Setaria viridis (SETVI) [9]; Setaria viridis, pre-emergence, 504 h, read-out: pre-emergence activity against SETVI in %): 100%
- pest or weed control at 320 g/ha [10]: 100%
- pest or weed control at 320 g/ha (Lolium rigidum (LOLRI) [11]): 100%
- pest or weed control at 320 g/ha [12]: 90%
- percent crop plant damage (wheat, post-emergence) at 320 g/ha ([13]; Triticum aestivum, 504 h, read-out: post-emergence activity against TRZAS in %): 10%
- pest or weed control at 320 g/ha ([14]; Echinochloa crus-galli, pre-emergence, 504 h, read-out: pre-emergence activity against ECHCG in %): 100%
- pest or weed control at 320 g/ha [15]: 90%
- pre-emergence activity against BRSNW in % (crop plant damage) (Brassica napus (BRSNW) [16]): 10%
- pre-emergence activity against GLXMA in % (crop plant damage) (Glycine max (GLXMA) [17]): 10%

Compound: COc1ccccc1-c1nc2c(cc1Br)SCN2B(N)N [Example I-087]
- pre-emergence activity against STEME in % (Stellaria media (STEME)): 90%
- pre-emergence activity against TRZAS in % (crop plant damage) ([1]; application rate 320 g/ha): 10%
- pre-emergence activity against ORYZA in % (crop plant damage) (Oryza sativa (ORYZA) [2]; application rate 320 g/ha): 20%
- post-emergence activity against ZEAMX in % (Zea mays (ZEAMX) [3]; crop plant damage): 0%
- post-emergence activity against GLXMA in % (Glycine max (GLXMA) [4]; crop plant damage, application rate 80 g/ha): 0%
- pre-emergence activity against KCHSC in % (Kochia scoparia (KCHSC) [18]): 90%
- pre-emergence activity against DIGSA in % [19]: 100%
- pre-emergence activity against LOLRI in % (Lolium rigidum (LOLRI) [20]): 100%
- post-emergence activity against BRSNW in % (Brassica napus (BRSNW) [5]; crop plant damage): 0%
- pre-emergence activity against ZEAMX in % (crop plant damage) (Zea mays (ZEAMX) [7]; application rate 320 g/ha): 10%
- post-emergence activity against ORYZA in % (Oryza sativa (ORYZA) [8]; crop plant damage, application rate 320 g/ha): 0%
- pre-emergence activity against SETVI in % (Setaria viridis (SETVI) [9]): 100%
- post-emergence activity against KCHSC in % (Kochia scoparia (KCHSC) [21]): 90%
- post-emergence activity against TRZAS in % ([13]; crop plant damage): 0%
- pre-emergence activity against ECHCG in % [14]: 90%
- pre-emergence activity against AMARE in % [22]: 90%
- pre-emergence activity against AMARE in % [23]: 90%
- pre-emergence activity against POAAN in % (Poa annua (POAAN)): 100%
- pre-emergence activity against SETVI in % (Setaria viridis (SETVI) [24]): 100%
- pre-emergence activity against BRSNW in % (crop plant damage) (Brassica napus (BRSNW) [16]): 20%
- pre-emergence activity against GLXMA in % (crop plant damage) (Glycine max (GLXMA) [17]): 20%
- pre-emergence activity against DIGSA in % [25]: 90%
